US20250120941A1, “Composition for Promoting the Assimilation of an Oligosaccharide” (MORINAGA MILK INDUSTRY CO., LTD., priority 2021, published 2025)

What was measured:
[1] = system: intestinal bacteria of infant fecal sample (feces B); assay: Fecal culture: oligosaccharide residual rate in culture supernatant (Test Example 1); format: cell-based, human infant
Method: Fecal samples were obtained from two healthy infants (feces A from an infant and feces B from an infant). The samples were collected immediately after the defecation and immediately moved to 10° C. or lower under an anaerobic condition. The collected feces were diluted with 10 times the amount of physiological saline within eight hours of the defecation and stored at −80° C. until use.
To imitate the environment of the large intestine, a culture experiment was conducted by the following procedures. Bio Jr. 8 100 mLx8 culture apparatus (BJR-25NA1S-8M manufactured by Biott Corporation) was used, and the operations were according to the instructions of the device. The medium components except for the tocopherols and the oligosaccharides were dissolved in purified water and sterilized in an autoclave. The tocopherols and the oligosaccharides which were dissolved in dimethyl sulfoxide (DMSO, FUJIFILM Wako Pure Chemical Corporation) and in purified water, respectively, and which were then sterilized with a filter were added to the medium after the autoclave treatment. The culture temperature was 37° C., and the anaerobic condition was maintained during the culture period by blowing filter-sterilized CO2 into the culture vessels. […]

[2] = system: bifidobacterial strains in infant fecal samples (feces A, feces B); assay: Fecal culture: bifidobacterial count by quantitative PCR (Test Example 3); format: cell-based, human infant; settings: after seven hours of culture, group without tocopherols = 1
Method: The feces A and the feces B prepared in Test Example 1 described above were used as fecal samples.
To imitate the environment of the large intestine, a culture experiment was conducted by the following procedures. Bio Jr. 8 100 mLx8 culture apparatus (BJR-25NA1S-8M manufactured by Biott Corporation) was used, and the operations were according to the instructions of the device. The medium components except for the tocopherols and the oligosaccharides were dissolved in purified water and sterilized in an autoclave, and the tocopherols and the oligosaccharides which were dissolved in dimethyl sulfoxide (DMSO, FUJIFILM Wako Pure Chemical Corporation) and in purified water, respectively, and which were then sterilized with a filter were added to the mixture after the autoclave treatment. The culture temperature was 37° C., and the anaerobic condition was maintained during the culture period by blowing filter-sterilized CO2 into the culture vessels. After adjusting the pH to 7.0, 100 μL (10 mg in terms of feces) of the fecal samples, which were diluted with physiological saline, were added, and anaerobic culture was started. To imitate the pH in the large intestine of an infant, the pH was controlled by neutralizing with 1M Na2CO3 when the pH became lower than 5.5 during the culture period. The media were collected 7 hours after starting the culture and centrifuged at 8000 rpm for 3 min at 4° C., and the supernatants and the precipitates were collected.
Using GENE PREP STAR PI-480 automated isolation system (Kurabo Industries Ltd. Japan), DNA was extracted from the precipitates collected in (2). Using the extracted DNA as templates and using the primers of SEQ ID NO: 1 (ctcctggaaacgggtgg) and SEQ ID NO: 2 ([…]), quantitative PCR was conducted with Applied Bio systems 7500 Fast & 7500 Real-Time PCR System (manufactured by Thermo Fisher), and the bacterial counts of bifidobacterial strains were measured. The PCR conditions were 40 cycles of denaturation at 95° C. for 5 seconds, subsequent annealing at 55° C. for 20 seconds and elongation at 72° C. for 30 seconds.
The bacterial counts of bifidobacterial strains after seven hours of culture, which were measured by the quantitative PCR, are shown in Table 5. The bacterial counts are the relative values where the bacterial counts of the groups without the addition of the tocopherols are regarded as 1.

SMILES	2′-FL Residual Rate ([1]; after 7-hr culture, YCFA medium, before culture = 100)	assimilation of 2′-fucosyllactose (in words) ([1]; after seven hours of culture)	bifidobacterial Count (Relative Value) ([2]; Feces A)	bifidobacterial Count (Relative Value) ([2]; Feces B)
C[C@@H]1O[C@@H](O[C@H]2[C@H](O[C@H]3[C@H](O)[C@@H](O)C(O)O[C@@H]3CO)O[C@H](CO)[C@H](O)[C@@H]2O)[C@@H](O)[C@H](O)[C@@H]1O (stereo partly drawn) [Comparative Example 1, 2′-Fucosyllactose]	114 mass %	remained in the supernatant without being assimilated	1	1
CC(=O)N[C@H]1[C@H]([C@H](O)[C@H](O)CO)O[C@@](OC[C@H]2O[C@@H](O[C@H]3[C@H](O)[C@@H](O)[C@H](O)O[C@@H]3CO)[C@H](O)[C@@H](O)[C@H]2O)(C(=O)O)C[C@@H]1O [Comparative Example 9, 6′-Sialyllactose]			1	1
